In article PMC5577610, “Nine New Triterpene Glycosides, Magnumosides A1–A4, B1, B2, C1, C2 and C4, from the Vietnamese Sea Cucumber Neothyonidium (=Massinium) magnum: Structures and Activities against Tumor Cells Independently and in Synergy with Radioactive Irradiation” (Marine Drugs, 2017):
Where a name gives a salt, the structure may show the parent alone.

Key:
Format in all cases: cell-based
[1] = Cytotoxic activity (MTT) against the ascites form of mouse Ehrlich carcinoma cells; conditions: mouse
Experimental: (§1) The spleenocytes from CD-1 line mice were used. The spleen was isolated from mice and homogenized. The spleenocytes were washed thrice and resuspended with RPMI-1640 medium contained gentamicine 8 μg/mL (Biolot, Saint Petersburg, Russia). The museum tetraploid strain of murine ascites Ehrlich carcinoma cells from the All-Russian cancer center RAMS (Moscow, Russia) was used. The cells of the ascites Ehrlich carcinoma were separated from ascites, which were collected on day 7 after inoculation in mouse CD-1 line. The cells were washed of ascites thrice and then resuspended in liquid media DMEM with L-Glutamine (Biolot, Saint Petersburg, Russia).
(§2) The solutions of tested substances in different concentrations (20 µL) and cell suspension (200 µL) were added in wells of 96-well plate and incubated over night at 37 °C and 5% CO2. After incubation the cells were sedimented by centrifugation, 200 µL of medium from each well were collected and 100 µL of pure medium were added. Then 10 µL of MTT solution […] (Sigma, St. Louis, MO, USA) were added in each well. Plate was incubated 4 h, after that 100 µL SDS-HCl were added to each well and plate was incubated at 37 °C 4–18 h. Optical density was measured at 570 nm and 630–690 nm. The activity of the substances was calculated as the ratio of the dead cells to general cells amount (ED50). Typicoside A1 [28] and cucumarioside A2-2 [11] were used as positive controls.

mouse erythrocytes = conditions: for Hemolytic action (in words): mouse erythrocytes
Experimental: The erythrocytes were washed thrice with 0.9% NaCl, centrifuged (450 g) on a centrifuge […] (Heraeus, Hanau, Germany) for 5 min followed by re-suspending in phosphate-buffered saline (PBS), pH 7.2-7.4. […] ED50 was calculated using SigmaPlot 3.02 software (Jandel Scientific, San Rafael, CA, USA). […] The erythrocyte suspension in phosphate-buffered saline, pH 7.2-7.4 (PBS) with 20 μL of the solvent without a tested compound was used as negative control.

[2] = Cytotoxic activity (MTT) against mouse spleenocytes; conditions: CD-1, mouse
Experimental: as §1, §2

[3] = system: human colorectal adenocarcinoma DLD-1 cells; assay: Cytotoxicity against DLD-1 cells (MTS assay); conditions: for IC50: Homo sapiens, DLD-1, read-out: IC50 (50% reduction in cell viability), DLD-1 cells, 24 h, 0–100 µM
Experimental: (§3) Human colorectal adenocarcinoma cells DLD-1 were cultured in RPMI-1640 medium. Culture media was supplemented with 10% fetal bovine serum (FBS) and penicillin—streptomycin solution. Cells were maintained in a sterile environment and kept in an incubator at 5% CO2 and 37 °C to promote growth. DLD-1 cells were sub-cultured every 3–4 days by their rinsing with phosphate buffered saline (PBS), adding trypsin to detach the cells from the tissue culture flask, and transferring 10–20% of the harvested cells to a new flask containing fresh growth media.
DLD-1 cells (1.0 × 10^4/well) were seeded in 96-well plates for 24 h at 37 °C in 5% CO2 incubator. The cells were treated with the compounds 1–9 at concentrations range from 0 to 100 µM for additional 24 h. Subsequently, cells were incubated with 15 µL MTS reagent for 3 h, and the absorbance of each well was measured at 490/630 nm using microplate reader “Power Wave XS” (Bio Tek, Winooski, VT, USA). All the experiments were repeated three times, and the mean absorbance values were calculated. The results are expressed as the percentage of inhibition that produced a reduction in absorbance by compound’s treatment compared to the non-treated cells (control).

[4] = system: human colorectal adenocarcinoma DLD-1 cells; assay: Soft agar assay, colony formation of DLD-1 cells; conditions: 14 days
Experimental: as §3
DLD-1 cells (8.0 × 10^3) were seeded in 6-well plate and treated with the 3, 7–9 (10 µM) in 1 mL of 0.3% Basal Medium Eagle (BME) agar containing 10% FBS, 2 mM L-glutamine, and 25 µg/mL gentamicin. The cultures were maintained at 37 °C in a 5% CO2 incubator for 14 days, and the cell’s colonies were scored using a microscope “Motic AE 20” (Scientific Instrument Company, Campbell, CA, USA) and the Motic Image Plus computer program (Scientific Instrument Company, Campbell, CA, USA).

With C=C(C)C(O)CCC(C)(O)C1C2CC3(C)C4=CCC5C(C)(C)C(OC6OCC(OS(=O)(=O)O)C(O)C6OC6OC(C)C(O)C(O)C6O)CCC5(C)C4CCC13C(=O)O2 [Compound 2, 3β-O-[β-D-quinovopyranosyl-(1→2)-4-O-sodium sulfate-β-D-xylopyranosyl]-9βH,20(S),24(S)-dihydroxylanosta-7,25-diene-18(16)-lactone] the IC50 [1] was over 100 µM, the “Hemolytic action (in words)” value (mouse erythrocytes) was “moderate hemolytic activity” and the IC50 [2] was 94.2 ± 1.18 µM. For the same compound, the “Cytotoxic effect against DLD-1 cells (in words)” value ([3]; 0–100 µM, 24 h) was “did not possessed cytotoxic effect” and the IC50 [3] was over 100 µM.

CC(C)=CCCC(C)(O)C1C2CC3(C)C4=CCC5C(C)(C)C(OC6OCC(OS(=O)(=O)O)C(O)C6OC6OC(C)C(O)C(O)C6O)CCC5(C)C4CCC13C(=O)O2 [Compound 4, 3β-O-[β-D-quinovopyranosyl-(1→2)-4-O-sodium sulfate-β-D-xylopyranosyl]-9βH,20(S)-hydroxylanosta-7,24-diene-18(16)-lactone] showed an IC50 [1] of 28.4 ± 0.42 µM, an IC50 [2] of 37.6 µM and an IC50 [3] of over 100 µM.

With COC1C(O)C(CO)OC(OC2COC(OC3C(C)OC(OC4C(OC5CCC6(C)C7CCC89C(=O)OC(CC8(C)C7=CCC6C5(C)C)C9C(C)(O)CC=CC(C)(C)O)OCC(OS(=O)(=O)O)C4O)C(O)C3O)C(O)C2O)C1O [Compound 5, 3β-O-[3-O-methyl-β-D-glucopyranosyl-(1→3)-β-D-xylopyranosyl-(1→4)-β-D-quinovopyranosyl-(1→2)-4-O-sodium sulfate-β-D-xylopyranosyl]-9βH,20(S),25-dihydroxylanosta-7,23E-diene-18(16)-lactone] the IC50 [1] was over 100 µM, the “Hemolytic action (in words)” value (mouse erythrocytes) was “moderate hemolytic activity” and the IC50 [2] was over 100 µM. For the same compound, the IC50 [3] was over 100 µM.

With C=C(C)C(O)CCC(C)(O)C1C2CC3(C)C4=CCC5C(C)(C)C(OC6OCC(OS(=O)(=O)O)C(O)C6OC6OC(C)C(OC7OCC(OC8OC(CO)C(O)C(OC)C8O)C(O)C7O)C(O)C6O)CCC5(C)C4CCC13C(=O)O2 [Compound 6, 3β-O-[3-O-methyl-β-D-glucopyranosyl-(1→3)-β-D-xylopyranosyl-(1→4)-β-D-quinovopyranosyl-(1→2)-4-O-sodium sulfate-β-D-xylopyranosyl]-9βH,20(S),24(S)-dihydroxylanosta-7,25-diene-18(16)-lactone] the IC50 [1] was over 100 µM, the “Hemolytic action (in words)” value (mouse erythrocytes) was “moderate hemolytic activity” and the IC50 [2] was over 100 µM. For the same compound, the IC50 [3] was over 100 µM.

In the case of COC1C(O)C(COS(=O)(=O)O)OC(OC2COC(OC3C(C)OC(OC4C(OC5CCC6(C)C7CCC89C(=O)OC(CC8(C)C7=CCC6C5(C)C)C9C(C)(O)CC=CC(C)(C)O)OCC(OS(=O)(=O)O)C4O)C(O)C3O)C(O)C2O)C1O [Compound 7, 3β-O-[6-O-sodium sulfate-3-O-methyl-β-D-glucopyranosyl-(1→3)-β-D-xylopyranosyl-(1→4)-β-D-quinovopyranosyl-(1→2)-4-O-sodium sulfate-β-D-xylopyranosyl]-9βH,20(S),25-dihydroxylanosta-7,23E-diene-18(16)-lactone], the IC50 [1] is reported as 18.7 µM, the “Hemolytic action (in words)” value (mouse erythrocytes) is reported as “significant effects” and the “Reduction of colonies size” value ([4]; 10 µM) is reported as 43%. For the same compound, the inhibition at 10 µM ([4]; Homo sapiens, DLD-1, 336 h, read-out: Inhibition of spontaneous colony formation (number of colonies)) was 26%, the IC50 [2] was 8.97 ± 0.04 µM and the IC50 [3] was 32.9 µM.

Triton X-100 [reference compound] showed a Hemolysis of cells (mouse erythrocytes; concentration 1%, positive control) of 100%.
